Results from ChEMBL document CHEMBL4334438, “Discovery of novel glycogen synthase kinase-3α inhibitors: Structure-based virtual screening, preliminary SAR and biological evaluation for treatment of acute myeloid leukemia” (Eur J Med Chem, 2019).

Experiments:
[1] = biological target: NUAK family SNF1-like kinase 1 (Homo sapiens) (UniProt O60285); assay: Inhibition of recombinant human ARK5 (2 to end residues) assessed as residual activity at 1 uM using KKKVSRSGLYRSPSMPENLNRPR as substrate incubated for 40 mins in presence of [gamma-33ATP] by scintillation counting based radiometry assay relative to control
[2] = tested on: Serine/threonine-protein kinase B-raf (Homo sapiens), P15056 [V600E]; assay: Inhibition of recombinant full length human B-Raf V599E mutant (416 to end residues) assessed as residual activity at 1 uM using myelin basic protein as substrate incubated for 40 mins in presence of [gamma-33ATP] by scintillation counting based radiometry assay relative to control
[3] = biological target: Cyclin-dependent kinase 2/cyclin E1 (Homo sapiens) (UniProt P24864+P24941); assay: Inhibition of recombinant full length human CDK2/CyclinE assessed as residual activity at 1 uM using Histone H1 as substrate incubated for 40 mins in presence of [gamma-33ATP] by scintillation counting based radiometry assay relative to control; format: protein-complex assay
[4] = biological target: CDK3/Cyclin E (Homo sapiens) (UniProt P24864+Q00526); assay: Inhibition of recombinant full length human CDK3/CyclinE assessed as residual activity at 1 uM using Histone H1 as substrate incubated for 40 mins in presence of [gamma-33ATP] by scintillation counting based radiometry assay relative to control; format: protein-complex assay
[5] = biological target: Cyclin-dependent kinase-like 1 (Homo sapiens) (UniProt Q00532); assay: Inhibition of recombinant human CDKL1 (1 to 303 residues) assessed as residual activity at 1 uM using RRRFRPASPLRGP as substrate measured after 120 mins in presence of [gamma33P]ATP by scintillation counting method
[6] = tested on: Discoidin domain-containing receptor 2 (Homo sapiens), Q16832 [UNDEFINED MUTATION]; assay: Inhibition of recombinant human DDR2 S642A mutant (467 to end residues) assessed as residual activity at 1 uM using KKSRGDYMTMQIG as substrate at 40 mins in presence of [gamma-33ATP] by scintillation counting based radiometry assay relative to control
[7] = biological target: Myotonin-protein kinase (Homo sapiens) (UniProt Q09013); assay: Inhibition of recombinant human DMPK (1 to 549 residues) assessed as residual activity at 1 uM using KKSRGDYMTMQIG as substrate at 40 mins in presence of [gamma-33ATP] by scintillation counting based radiometry assay relative to control
[8] = biological target: Fibroblast growth factor receptor 2 (Homo sapiens) (UniProt P21802); assay: Inhibition of recombinant human FGFR2 (456 to 770 residues) assessed as residual activity at 1 uM using poly(Glu, Tyr) 4:1 as substrate at 40 mins in presence of [gamma-33ATP] by scintillation counting based radiometry assay relative to control
[9] = biological target: Mitogen-activated protein kinase kinase kinase kinase 2 (Homo sapiens) (UniProt Q12851); assay: Inhibition of recombinant human GCK (1 to 473 residues) assessed as residual activity at 1 uM using myelin basic protein as substrate at 40 mins in presence of [gamma-33ATP] by scintillation counting based radiometry assay relative to control
[10] = biological target: LIM domain kinase 2 (Homo sapiens) (UniProt P53671); assay: Inhibition of recombinant human LIMK2 assessed as residual activity after 1 uM by radiometry assay relative to control
[11] = biological target: MAP kinase-activated protein kinase 3 (Homo sapiens) (UniProt Q16644); assay: Inhibition of recombinant human MAPKAPK3 (2 to end residues) assessed as residual activity at 1 uM using KKLNRTLSVA as substrate incubated for 40 mins in presence of [gamma-33ATP by scintillation counting based radiometry assay relative to control
[12] = biological target: MAP/microtubule affinity-regulating kinase 4 (Homo sapiens) (UniProt Q96L34); assay: Inhibition of recombinant full length human MARK4 assessed as residual activity at 1 uM using KKKVSRSGLYRSPSMPENLNRPR as substrate incubated for 40 mins in presence of [gamma-33ATP by scintillation counting based radiometry assay relative to control
[13] = biological target: Serine/threonine-protein kinase 3 (Homo sapiens) (UniProt Q13188); assay: Inhibition of recombinant full-length human MST2 (2 to end residues) assessed as residual activity at 1 uM using myelin basic protein as substrate measured after 40 mins in presence of [gamma33P]ATP by scintillation counting method relative to control
[14] = biological target: FKBP12A/mTOR (Homo sapiens) (UniProt P62942+P42345); assay: Inhibition of recombinant full length human mTOR/FKBP12 assessed as residual activity at 1 uM measured after 40 mins in presence of [gamma33P]ATP by scintillation counting based radiometry assay relative to control; format: protein-complex assay
[15] = biological target: NUAK family SNF1-like kinase 2 (Homo sapiens) (UniProt Q9H093); assay: Inhibition of recombinant human full length NUAK2 assessed as residual activity at 1 uM using KKKVSRSGLYRSPSMPENLNRPR as substrate measured after 40 mins in presence of [gamma33P]ATP by scintillation counting method relative to control
[16] = biological target: Serine/threonine-protein kinase PAK 6 (Homo sapiens) (UniProt Q9NQU5); assay: Inhibition of recombinant human PAK6 (382 to end residues) assessed as residual activity at 1 uM using RRRLSFAEPG as substrate measured after 40 mins in presence of [gamma33P]ATP by scintillation counting method relative to control
[17] = biological target: Serine/threonine-protein kinase pim-2 (Homo sapiens) (UniProt Q9P1W9); assay: Inhibition of recombinant human Pim2 (2 to end residues) assessed as residual activity at 1 uM using RSRHSSYPAGT as substrate measured after 40 mins in presence of [gamma33P]ATP by scintillation counting method relative to control
[18] = biological target: cAMP-dependent protein kinase catalytic subunit alpha (Homo sapiens) (UniProt P17612); assay: Inhibition of recombinant human PKA assessed as residual activity at 1 uM using Kemptide as substrate measured after 40 mins in presence of [gamma33P]ATP by scintillation counting method relative to control
Homo sapiens [19] = organism: Homo sapiens; assay: Inhibition of recombinant full length human PKBalpha S478G mutant assessed as residual activity at 1 uM using GRPRTSSFAEGKK as substrate measured after 40 mins in presence of [gamma33P]ATP by scintillation counting method relative to control
[20] = biological target: Protein kinase C alpha type (Homo sapiens) (UniProt P17252); assay: Inhibition of recombinant human full length PKCalpha assessed as residual activity at 1 uM using histone H1 as substrate measured after 40 mins in presence of [gamma33P]ATP by scintillation counting method relative to control
[21] = biological target: Protein kinase C beta type (Homo sapiens) (UniProt P05771); assay: Inhibition of recombinant human PKCbeta2 (2 to end residues) assessed as residual activity at 1 uM using histone H1 as substrate measured after 40 mins in presence of [gamma33P]ATP by scintillation counting method relative to control
Homo sapiens [22] = organism: Homo sapiens; assay: Inhibition of recombinant full-length human PI3K p110delta/p85alpha N253S mutant at 1 uM assessed as residual activity at 1 uM using phosphatidylinositol-4, 5-bisphosphate as substrate measured after 40 mins by fluorescence assay

MAP kinase-activated protein kinase 3 (Homo sapiens), sequence (Q16644 whole entry, looked up): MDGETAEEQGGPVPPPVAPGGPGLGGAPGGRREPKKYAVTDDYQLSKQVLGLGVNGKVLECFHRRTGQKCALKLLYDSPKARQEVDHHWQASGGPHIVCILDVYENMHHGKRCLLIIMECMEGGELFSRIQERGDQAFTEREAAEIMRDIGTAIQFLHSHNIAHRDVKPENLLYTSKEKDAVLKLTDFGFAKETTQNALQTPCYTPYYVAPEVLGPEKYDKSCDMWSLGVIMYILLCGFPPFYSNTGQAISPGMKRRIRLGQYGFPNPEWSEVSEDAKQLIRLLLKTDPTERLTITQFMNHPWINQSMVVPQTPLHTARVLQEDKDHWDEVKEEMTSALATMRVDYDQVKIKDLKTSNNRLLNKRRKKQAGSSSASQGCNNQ
Serine/threonine-protein kinase 3 (Homo sapiens), sequence (Q13188 whole entry): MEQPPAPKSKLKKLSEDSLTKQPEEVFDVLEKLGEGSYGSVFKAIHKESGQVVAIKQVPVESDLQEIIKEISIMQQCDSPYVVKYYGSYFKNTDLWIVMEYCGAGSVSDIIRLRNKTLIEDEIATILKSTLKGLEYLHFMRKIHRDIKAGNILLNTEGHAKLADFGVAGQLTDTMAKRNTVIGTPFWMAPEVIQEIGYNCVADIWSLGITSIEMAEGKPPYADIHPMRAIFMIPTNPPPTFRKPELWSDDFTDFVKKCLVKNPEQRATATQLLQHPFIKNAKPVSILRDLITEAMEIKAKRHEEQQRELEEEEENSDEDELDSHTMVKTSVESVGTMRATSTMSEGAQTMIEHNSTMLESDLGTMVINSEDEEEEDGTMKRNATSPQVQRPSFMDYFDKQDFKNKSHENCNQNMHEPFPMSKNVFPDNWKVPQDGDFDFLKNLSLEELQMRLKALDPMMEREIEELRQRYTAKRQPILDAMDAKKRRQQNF
LIM domain kinase 2 (Homo sapiens), sequence (P53671 whole entry, looked up, the tested form may be a part): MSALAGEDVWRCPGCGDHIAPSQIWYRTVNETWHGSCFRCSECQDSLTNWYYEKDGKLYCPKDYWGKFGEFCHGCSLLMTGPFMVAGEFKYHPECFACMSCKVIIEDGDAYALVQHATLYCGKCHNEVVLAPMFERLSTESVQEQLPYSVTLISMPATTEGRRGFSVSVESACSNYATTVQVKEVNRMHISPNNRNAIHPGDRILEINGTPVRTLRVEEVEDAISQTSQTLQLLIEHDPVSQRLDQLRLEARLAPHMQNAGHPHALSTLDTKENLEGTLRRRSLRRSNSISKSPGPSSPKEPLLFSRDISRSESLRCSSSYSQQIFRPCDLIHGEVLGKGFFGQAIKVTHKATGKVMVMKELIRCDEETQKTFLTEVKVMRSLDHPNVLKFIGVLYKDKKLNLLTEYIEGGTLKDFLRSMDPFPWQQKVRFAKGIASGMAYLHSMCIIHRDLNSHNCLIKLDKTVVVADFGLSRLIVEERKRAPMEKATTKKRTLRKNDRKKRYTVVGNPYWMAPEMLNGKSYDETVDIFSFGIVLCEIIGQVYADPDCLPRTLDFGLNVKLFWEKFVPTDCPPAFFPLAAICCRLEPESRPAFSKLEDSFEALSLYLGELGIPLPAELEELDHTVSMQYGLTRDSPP
Cyclin-dependent kinase-like 1 (Homo sapiens), sequence (Q00532 whole entry, the tested form may be a part): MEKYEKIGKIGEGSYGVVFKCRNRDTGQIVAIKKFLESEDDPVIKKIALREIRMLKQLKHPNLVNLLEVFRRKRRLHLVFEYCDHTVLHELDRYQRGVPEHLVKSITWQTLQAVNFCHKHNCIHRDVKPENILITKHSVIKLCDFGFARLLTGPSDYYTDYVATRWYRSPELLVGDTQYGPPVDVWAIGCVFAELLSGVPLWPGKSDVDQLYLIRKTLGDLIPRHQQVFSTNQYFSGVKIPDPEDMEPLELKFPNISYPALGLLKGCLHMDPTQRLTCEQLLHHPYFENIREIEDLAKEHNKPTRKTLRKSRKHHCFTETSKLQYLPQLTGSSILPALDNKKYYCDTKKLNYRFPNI
Discoidin domain-containing receptor 2 (Homo sapiens), Q16832 [UNDEFINED MUTATION], sequence (Q16832 whole entry, looked up, stated change not applied, the tested form may be a part): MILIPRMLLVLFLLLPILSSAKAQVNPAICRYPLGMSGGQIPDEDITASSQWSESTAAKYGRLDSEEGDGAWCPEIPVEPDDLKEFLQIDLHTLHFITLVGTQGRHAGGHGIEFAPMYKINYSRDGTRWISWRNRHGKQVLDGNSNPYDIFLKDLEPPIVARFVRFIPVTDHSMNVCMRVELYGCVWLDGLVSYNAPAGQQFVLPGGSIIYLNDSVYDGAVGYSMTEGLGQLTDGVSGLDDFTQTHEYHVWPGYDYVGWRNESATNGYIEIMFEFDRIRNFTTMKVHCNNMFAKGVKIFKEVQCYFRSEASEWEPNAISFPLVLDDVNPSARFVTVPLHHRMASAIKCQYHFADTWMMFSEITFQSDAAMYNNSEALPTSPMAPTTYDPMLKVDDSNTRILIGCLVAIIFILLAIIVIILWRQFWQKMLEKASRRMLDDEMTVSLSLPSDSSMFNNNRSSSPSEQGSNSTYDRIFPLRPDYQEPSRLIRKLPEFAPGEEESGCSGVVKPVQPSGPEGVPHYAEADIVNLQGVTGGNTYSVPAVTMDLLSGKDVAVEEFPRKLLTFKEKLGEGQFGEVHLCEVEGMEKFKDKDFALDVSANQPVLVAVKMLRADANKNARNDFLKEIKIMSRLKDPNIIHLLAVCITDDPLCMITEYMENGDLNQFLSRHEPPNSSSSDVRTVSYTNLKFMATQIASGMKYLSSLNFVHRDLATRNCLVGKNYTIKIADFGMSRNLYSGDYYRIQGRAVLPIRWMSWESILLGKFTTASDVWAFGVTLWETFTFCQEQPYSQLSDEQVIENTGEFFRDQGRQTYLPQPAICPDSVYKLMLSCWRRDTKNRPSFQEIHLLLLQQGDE
Mitogen-activated protein kinase kinase kinase kinase 2 (Homo sapiens), sequence (Q12851 whole entry, the tested form may be a part): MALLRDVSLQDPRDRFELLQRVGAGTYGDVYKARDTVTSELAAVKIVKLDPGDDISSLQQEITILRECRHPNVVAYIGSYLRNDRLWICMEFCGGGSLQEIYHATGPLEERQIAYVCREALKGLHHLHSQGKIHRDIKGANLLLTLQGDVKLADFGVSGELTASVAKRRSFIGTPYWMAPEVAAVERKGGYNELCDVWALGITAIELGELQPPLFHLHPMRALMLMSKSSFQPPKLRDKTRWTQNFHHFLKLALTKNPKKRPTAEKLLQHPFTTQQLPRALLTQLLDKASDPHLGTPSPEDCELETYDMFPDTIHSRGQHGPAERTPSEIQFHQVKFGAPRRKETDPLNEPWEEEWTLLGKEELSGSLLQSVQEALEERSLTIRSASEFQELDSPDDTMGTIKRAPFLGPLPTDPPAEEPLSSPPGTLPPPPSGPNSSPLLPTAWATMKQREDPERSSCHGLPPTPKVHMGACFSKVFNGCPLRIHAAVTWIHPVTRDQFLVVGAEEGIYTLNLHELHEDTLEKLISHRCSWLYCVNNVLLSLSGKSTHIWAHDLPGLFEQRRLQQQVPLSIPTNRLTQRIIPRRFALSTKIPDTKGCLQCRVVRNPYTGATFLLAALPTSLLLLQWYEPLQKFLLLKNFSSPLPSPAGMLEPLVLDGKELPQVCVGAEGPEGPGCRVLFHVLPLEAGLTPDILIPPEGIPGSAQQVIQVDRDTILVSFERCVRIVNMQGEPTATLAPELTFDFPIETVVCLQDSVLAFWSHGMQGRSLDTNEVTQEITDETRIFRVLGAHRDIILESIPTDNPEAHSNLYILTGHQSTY
Serine/threonine-protein kinase pim-2 (Homo sapiens), sequence (Q9P1W9 whole entry, looked up): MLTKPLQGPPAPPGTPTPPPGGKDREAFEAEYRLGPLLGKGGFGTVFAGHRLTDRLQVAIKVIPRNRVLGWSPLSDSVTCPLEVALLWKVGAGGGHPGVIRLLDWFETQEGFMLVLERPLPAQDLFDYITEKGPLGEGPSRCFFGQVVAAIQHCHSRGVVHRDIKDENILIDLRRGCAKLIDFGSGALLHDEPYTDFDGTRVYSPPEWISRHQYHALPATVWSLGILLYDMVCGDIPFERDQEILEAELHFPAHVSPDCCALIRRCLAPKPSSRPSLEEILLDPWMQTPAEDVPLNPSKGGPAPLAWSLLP
FKBP12A/mTOR (Homo sapiens), sequence (P62942 2-108 limits assumed, other chains not shown): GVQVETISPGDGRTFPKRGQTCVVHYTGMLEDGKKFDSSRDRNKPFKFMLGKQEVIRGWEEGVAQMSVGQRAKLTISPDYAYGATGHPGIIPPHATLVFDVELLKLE

`N=C1NC(=O)/C(=C\c2ccc(-c3cccc([N+](=O)[O-])c3)o2)S1` was tested, and the Activity [1] was 99%, the Activity [2] was 95% and the Activity [3] was 62%. It also gave an Activity [4] of 80%, an Activity [5] of 85% and an Activity [6] of 108%. The Activity [7] was 93%, the Activity [8] was 102% and the Activity [9] was 81%. The Activity [10] was 101%, the Activity [11] was 97% and the Activity [12] was 92%. For the same molecule, the Activity [13] was 98%, the Activity [14] was 107% and the Activity [15] was 95%. For the same molecule, the Activity [16] was 91%, the Activity [17] was 6% and the Activity [18] was 107%. The Activity (Homo sapiens [19]) was 97%, the Activity [20] was 97% and the Activity [21] was 92%. For the same molecule, the Activity (Homo sapiens [22]) was 98%.
`C=CCOC(=O)c1cc(-c2ccc(/C=C3/NC(=S)NC3=O)o2)ccc1Cl` showed an Activity [1] of 79%, an Activity [2] of 87% and an Activity [3] of 58%. It also gave an Activity [4] of 88%, an Activity [5] of 78% and an Activity [6] of 105%. It also gave an Activity [7] of 76%, an Activity [8] of 98% and an Activity [9] of 89%. The Activity [10] was 95%, the Activity [11] was 96% and the Activity [12] was 113%. For the same molecule, the Activity [13] was 92%, the Activity [14] was 97% and the Activity [15] was 111%. It also gave an Activity [16] of 107%, an Activity [17] of 10% and an Activity [18] of 82%. It also gave an Activity (Homo sapiens [19]) of 97%, an Activity [20] of 96% and an Activity [21] of 100%. The Activity (Homo sapiens [22]) was 94%.
